# From ChEMBL document CHEMBL5137082, “Discovery of a Novel Vascular Disrupting Agent Inhibiting Tubulin Polymerization and HDACs with Potent Antitumor Effects” (J Med Chem, 2022)
# Active and inactive are the calls of the source. The calls are words filed in the database; no cut-off is given here.
# Key:
# [1] = tested on: PC-3; test: Induction of apoptosis in human PC-3 cells assessed as mitochondrial membrane potential loss by measuring decrease in red fluorescence at 30 nM incubated for 48 hrs by JC1 staining based flow cytometry analysis (reference value: 93.48 +/- 0.15%); assay type: functional; parameters: scale not given: the % may be the effect or the level left
# [2] = tested on: H22; test: Antitumor activity against mouse H22 cells allografted in ICR mouse assessed as reduction in tumor weight at 20 mg/kg, iv administered qd measured after 21 days; assay type: functional; parameters: scale not given: the % may be the effect or the level left; settings: time 21 day
# [3] = Metabolic stability in mouse plasma assessed as compound remaining at 40 uM measured after 1 hrs by LC-MS/MS analysis (reference value: 100%); assay type: ADME, cell-free
# [4] = target: Tubulin; test: Inhibition of tubulin polymerization (unknown origin) preincubated for 15 mins followed by PEG and GTP addition measured after 30 mins by spectrophotometric method; assay type: protein-complex assay, Homo sapiens
# [5] = tested on: Mus musculus; test: In vivo inhibition of HDAC in ICR mouse allografted with mouse H22 cells assessed as upregulation of acetyl-histone H3 expression at 20 mg/kg, iv qd administered for 21 days measured after 24 hrs by Western blot analysis; assay type: functional, organism-based; settings: time 21.0 day
# [6] = target: T1, Protein deacetylase HDAC6 (Homo sapiens, UniProt Q9UBN7); test: Inhibition of HDAC6 in human HeLa cells using BOC-K(Ac)-AMC as substrate measured after 30 mins by fluorescence based microtiter plate reader assay; assay type: cell-based
# T1 sequence (Q9UBN7 whole entry): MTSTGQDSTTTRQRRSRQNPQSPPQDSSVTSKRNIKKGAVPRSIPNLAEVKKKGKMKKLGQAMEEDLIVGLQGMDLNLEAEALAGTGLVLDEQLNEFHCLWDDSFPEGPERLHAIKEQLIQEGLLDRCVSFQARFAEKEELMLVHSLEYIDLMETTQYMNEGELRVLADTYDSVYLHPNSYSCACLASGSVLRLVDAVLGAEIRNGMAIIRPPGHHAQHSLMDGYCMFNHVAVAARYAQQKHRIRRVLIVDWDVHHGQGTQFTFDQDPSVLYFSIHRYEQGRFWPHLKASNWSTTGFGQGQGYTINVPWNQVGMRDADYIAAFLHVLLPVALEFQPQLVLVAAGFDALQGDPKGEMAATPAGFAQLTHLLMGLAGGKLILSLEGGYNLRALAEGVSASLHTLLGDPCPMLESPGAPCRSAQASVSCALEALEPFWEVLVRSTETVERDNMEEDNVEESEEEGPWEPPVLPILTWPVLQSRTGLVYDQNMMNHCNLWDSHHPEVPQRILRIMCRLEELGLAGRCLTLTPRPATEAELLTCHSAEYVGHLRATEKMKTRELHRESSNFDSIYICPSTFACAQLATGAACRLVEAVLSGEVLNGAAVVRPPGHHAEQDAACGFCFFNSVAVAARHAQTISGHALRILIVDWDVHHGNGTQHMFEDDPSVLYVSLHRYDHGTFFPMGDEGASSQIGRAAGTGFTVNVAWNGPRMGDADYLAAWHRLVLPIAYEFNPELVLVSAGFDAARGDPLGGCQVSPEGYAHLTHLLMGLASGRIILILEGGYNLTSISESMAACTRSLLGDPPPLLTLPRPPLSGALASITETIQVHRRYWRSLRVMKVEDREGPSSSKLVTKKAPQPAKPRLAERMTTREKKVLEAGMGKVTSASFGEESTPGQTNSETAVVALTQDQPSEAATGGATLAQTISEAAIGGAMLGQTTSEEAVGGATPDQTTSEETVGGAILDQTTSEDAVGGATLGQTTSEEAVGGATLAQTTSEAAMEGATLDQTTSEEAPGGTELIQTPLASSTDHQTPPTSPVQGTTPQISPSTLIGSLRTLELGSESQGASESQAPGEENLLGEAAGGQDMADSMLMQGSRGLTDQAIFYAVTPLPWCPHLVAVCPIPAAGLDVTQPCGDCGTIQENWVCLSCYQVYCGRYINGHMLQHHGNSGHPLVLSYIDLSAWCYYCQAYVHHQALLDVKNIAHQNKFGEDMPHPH
# [7] = tested on: HepG2; test: Induction of cell cycle arrest in human HepG2 cells assessed as accumulation G2 phase at 15 nM incubated for 48 hrs by propidium iodide staining based flow cytometry analysis (reference value: 23.55 +/- 0.29%); assay type: functional
# [8] = Toxicity in ICR mouse allografted with mouse H22 cells assessed as pathological changes in liver at 20 mg/kg, iv administered qd measured after 21 days by H and E staining based analysis; assay type: organism-based; settings: in vivo, 504 h, time 21 day
# [9] = tested on: HepG2; test: Induction of apoptosis in human HepG2 cells assessed as upregulation of Bad protein expression measured after 24 hrs by Western blot analysis; assay type: functional, cell-based; settings: dose 7.5-30 nM, DDE = dose-dependent effect
# [10] = target: T2, Tubulin (Homo sapiens) (UniProt P68371+Q9H4B7+P0DPH7+P68366+Q13509+Q71U36+P04350+Q3ZCM7+P07437+P68363+Q9BQE3+Q6PEY2+Q13885+Q9BVA1+Q9BUF5); test: Inhibition of [3H]Colchicine binding to tubulin (unknown origin) at 1 uM measured after 2 hrs by scintillation counting method relative to control; assay type: protein-complex assay
# [11] = Cardiotoxicity in ICR mouse allografted with mouse H22 cells assessed as effect on P wave at 20 mg/kg, iv administered qd measured after 21 days by ECG analysis; assay type: toxicity, organism-based; settings: in vivo, 504 h, time 21 day
# [12] = Toxicity in ICR mouse allografted with mouse H22 cells assessed as pathological changes in lung at 20 mg/kg, iv administered qd measured after 21 days by H and E staining based analysis; assay type: organism-based; settings: in vivo, 504 h, time 21 day
# [13] = tested on: HepG2; test: Induction of apoptosis in human HepG2 cells assessed as late apoptotic cells at 7.5 nM incubated for 48 hrs by Annexin-V/PI-staining based flow cytometry (reference value: 2.53 +/- 0.34%); assay type: functional
# [14] = target: Histone deacetylase 1 (Homo sapiens, UniProt Q13547); test: Inhibition of HDAC1 in human HeLa cells using BOC-K(Ac)-AMC as substrate measured after 30 mins by fluorescence based microtiter plate reader assay; assay type: cell-based
# [15] = Metabolic stability in mouse plasma assessed as compound remaining at 40 uM measured after 5 hrs by LC-MS/MS analysis (reference value: 100%); assay type: ADME, cell-free
# [16] = Toxicity in ICR mouse allografted with mouse H22 cells assessed as pathological changes in spleen at 20 mg/kg, iv administered qd measured after 21 days by H and E staining based analysis; assay type: organism-based; settings: in vivo, 504 h, time 21 day
# [17] = tested on: PC-3; test: Induction of apoptosis in human PC-3 cells assessed as mitochondrial membrane potential loss by measuring early apoptotic cells at 30 nM incubated for 48 hrs by JC1 staining based flow cytometry analysis (reference value: 6.50 +/- 0.17%); assay type: functional
# [18] = target: T2, Tubulin (Homo sapiens); test: Disruption of microtubule network in human HepG2 cells at 7.5 to 30 nM measured after 2 hrs by DAPI staining based immunofluorescence microscopic assay; assay type: cell-based; settings: dose 7.5-30 nM
# [19] = tested on: Mus musculus; test: In vivo inhibition of HDAC in ICR mouse allografted with mouse H22 cells assessed as upregulation of acetyl-alpha tubulin expression at 20 mg/kg, iv qd administered for 21 days measured after 24 hrs by Western blot analysis; assay type: functional, organism-based; settings: time 21.0 day
# [20] = tested on: HepG2; test: Induction of G2/M phase cell cycle arrest in human HepG2 cells assessed as decrease in Cdc25c protein expression at 7.5 to 30 nM measured after 24 hrs by western blot analysis; assay type: functional, cell-based; settings: dose 7.5-30 nM
# Histone deacetylase 1, sequence (Q13547 whole entry): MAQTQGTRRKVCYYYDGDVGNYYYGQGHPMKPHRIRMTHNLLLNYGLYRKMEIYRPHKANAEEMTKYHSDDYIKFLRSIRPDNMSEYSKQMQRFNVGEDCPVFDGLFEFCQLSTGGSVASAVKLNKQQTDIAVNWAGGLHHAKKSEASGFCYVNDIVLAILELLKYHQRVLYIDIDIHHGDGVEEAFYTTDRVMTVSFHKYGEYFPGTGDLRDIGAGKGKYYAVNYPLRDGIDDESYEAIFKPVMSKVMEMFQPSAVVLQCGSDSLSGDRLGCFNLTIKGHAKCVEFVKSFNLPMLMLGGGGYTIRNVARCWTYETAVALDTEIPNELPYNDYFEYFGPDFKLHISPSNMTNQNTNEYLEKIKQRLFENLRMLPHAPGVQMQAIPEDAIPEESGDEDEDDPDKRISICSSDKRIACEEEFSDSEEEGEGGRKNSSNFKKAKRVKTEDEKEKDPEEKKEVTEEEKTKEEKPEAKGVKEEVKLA
smiles,measurement,setting,value
COc1ccc(CNC(=O)c2cc(F)ccc2N2CCOCC2)cc1/C=C/C(=O)NO,Activity,[1],49.39%
same,Activity,[2],83%
same,Stability,[3],45.6%
same,IC50,[4],4060 nM
same,inhibition,[5],Active
same,IC50,[6],138 nM
same,Activity,[7],26.97%
same,Activity,[8],Non-Toxic
same,Activity,[9],Dde
same,inhibition,[10],52.3%
same,Activity,[11],Non-Toxic
same,Activity,[12],Non-Toxic
same,Activity,[13],6.89%
same,IC50,[14],115 nM
same,Stability,[15],16%
same,Activity,[16],Non-Toxic
same,Activity,[17],59.5%
same,Activity,[18],Active
same,inhibition,[19],Active
same,Activity,[20],Active
